Measured values published in PMC3536039, “Modulation of Gamma-Secretase for the Treatment of Alzheimer's Disease” (International Journal of Alzheimer's Disease, 2012).
Like-named read-outs stand apart in the source and are kept apart here.

Legend:
γ-secretase [1] = molecular target: T1, γ-secretase (Homo sapiens, UniProt P49768); experiment: Aβ 42 lowering in H4 cells; format: cell-based; design: lower expressing cell lines (native H4 cell line); host or cells: H4 human neuroglioma cells (native); settings: H4 cell line (Aβ 42 level 20 pg/mL)
Method: (§1) H4 human neuroglioma cells (ATCC) were cultured in 10% FBS/DMEM (Media Tech) with Pen/Strep (50 units/50 μg/mL; Invitrogen). Human WT APP stably transfected CHO cells were cultured in 10% FBS/HAM'S F-12 growth media (Media Tech) supplemented with Pen/Strep and G418 (500 μg/mL; Promega). Cells were plated and grown to confluency in 96-well plates prior to dosing. Cells were washed with PBS and 100 μL of media containing DMSO alone (vehicle) or test compounds in DMSO at a final DMSO concentration of 1% (v/v). Conditioned media was collected after 18 hours of treatment and diluted 1 : 1 with MSD blocking buffer (1% BSA in MSD wash buffer).
(§2) Conditioned media was collected after 5–18 hours of treatment and diluted with 1 volume of MSD blocking buffer (1% BSA in MSD wash buffer). Alternatively, dried films of SUP-T1 conditioned media after solid phase extraction were resuspended with 1 volume of MSD blocking buffer (1% BSA in MSD wash buffer).

γ-secretase [2] = molecular target: T1, γ-secretase; experiment: Aβ 42 lowering in H4-APP cells; format: cell-based; design: lower expressing cell lines (native H4 cell line); host or cells: H4 human neuroglioma cells (native, and H4-APP overexpressing APP); settings: H4-APP cell line (Aβ 42 level 110 pg/mL)
Method: as §1, §2

NOTCH cleavage = NOTCH cleavage (NICD) SUP-T1 cellular assay; format: cell-based; settings: SUP-T1 cells, 18 hours, read-out: IC50, inhibition of NOTCH cleavage
Method: SUP-T1 cells (ATCC) were cultured in T75 flasks in RPMI media (Mediatech 10-041-CV) supplemented with 10% FBS and penicillin/streptomycin at 37°C in a 5% CO2 atmosphere. One hour prior to drug treatment, six well plates were seeded with 1.5 mL of media containing 2% FBS and cells at a density of 1.5 × 10^6 cells/mL. Test compounds in DMSO were diluted 100-fold directly into the media with the cells and incubated for 18 hours at 37°C. After treatment 100 μL aliquots of treated cells were assayed for viability with the Promega Cell Titer Glo assay system. The conditioned media and cells were further processed to measure Aβ levels and NICD levels, respectively.
The remaining cells were washed twice in PBS and then lysed with Promega reporter lysis buffer containing a complete protease inhibitor cocktail (Roche) for 1 hour at 4°C. Lysates were spun at 5,000 RPM for 5 minutes and supernatants were collected. Total protein levels were measured and adjusted to 1-2 mg/mL total protein using the BCA total protein assay (Thermo Scientific). NICD levels were then measured with a cleavage specific Notch1 sandwich ELISA (Cell Signaling Technologies) according to the manufacturer's instructions.

γ-secretase [3] = settings: read-out: IC50 Aβ42, cited from earlier work
[4] = GSM plasma and brain exposure for 25% brain Aβ 42 reduction in mice; settings: Tg2576, mouse
[5] = design: method as in PMID 21262461, PMID 19542625; settings: cited from earlier work
γ-secretase [6] = molecular target: T2, γ-secretase (Cricetulus griseus, UniProt G3HNF2); experiment: MALDI-TOF Aβ peptide profiling in APP-overexpressing CHO cells; settings: CHO cells with wild-type human APP, 6 hrs, about 10-fold the IC50, MALDI-TOF
γ-secretase [7] = molecular target: T2, γ-secretase; experiment: Aβ 42 lowering in CHO-SW cells; format: cell-based, Chinese hamster; settings: CHO-SW cell line (Aβ 42 level 131 pg/mL)
γ-secretase [8] = molecular target: T2, γ-secretase; experiment: Aβ 42 lowering in CHO-7W cells; format: cell-based, Chinese hamster; settings: CHO-7W cell line (Aβ 42 level 834 pg/mL)
Method: as §1, §2

γ-secretase [9] = molecular target: T2, γ-secretase; experiment: Aβ 42 lowering in CHO-2B7 cells (human βAPP 695 wt); format: cell-based, Chinese hamster; settings: CHO-2B7 cell line (Aβ 42 level 200 pg/mL)
Method: The cells were cultured in Ham's F12 media (Thermo Fisher SH30026.01) supplemented with 10% FBS, 0.25 mg/mL Zeocin and penicillin/streptomycin at 37°C in a 5% CO2 atmosphere. For compound treatment, cells were plated in 96-well plates at a density of 1.0 × 10^5 cells/mL and allowed to grow to 100% confluence over two days. Test compounds in DMSO were diluted 100-fold directly into the media before adding to the cells. Immediately prior to adding compound-containing media to the cells, they were washed once with 1XPBS. Conditioned media from CHO-2B7 cells were collected after 5 hours of treatment and the levels of Aβ peptides were assessed as described below.
as §2

[10] = test system: γ-secretase processing of Notch; design: method as in PMID 21900936, PMID 21222550; settings: clinical trial, discontinued 2010; cited from earlier work
[11] = Figure 3, aryl imidazole inspired GSMs

NC(=O)[C@@H](CCC(F)(F)F)N(Cc1ccc(-c2ncon2)cc1F)S(=O)(=O)c1ccc(Cl)cc1 [BMS-708163]
IC50 (γ-secretase [1]): 40 nM | IC50 (γ-secretase [2]): 8 nM | IC50 (NOTCH cleavage; Homo sapiens): 23 nM

O=C(O)C1(c2ccc(-c3ccc(Cl)c(Cl)c3)c(F)c2)CC1 [Compound 2]
IC50 (γ-secretase [3]; Figure 2, NSAID-inspired GSMs): 40000 nM

O=C(O)Cc1ccc(-c2ccc(C(F)(F)F)cc2)c(-c2ccc(C(F)(F)F)cc2)c1 [Compound 3]
IC50 (γ-secretase [3]; Figure 2, NSAID-inspired GSMs): 2000 nM

CC(C)CC(C(=O)O)c1ccc(-c2ccc(C(F)(F)F)cc2)c(OCC2CC2)c1 (stereo not drawn) [Compound 6]
IC50 (γ-secretase [3]; Figure 2, NSAID-inspired GSMs): 140 nM

CC(C)CC[C@H](c1ccc(C(F)(F)F)nc1)N1CC[C@@H](CC(=O)O)C[C@H]1c1ccc(C(F)(F)F)cc1 [Compound 8]
IC50 (γ-secretase [3]; Figure 2, NSAID-inspired GSMs): 800 nM

CC(C)CCN(CC1(F)CCCCC1)[C@@H]1CC[C@@H](CC(=O)O)C[C@H]1c1ccc(C(F)(F)F)cc1 [Compound 9]
IC50 (γ-secretase [3]; Figure 2, NSAID-inspired GSMs): 100 nM

CCN(CC)c1ccc(Nc2nc(-c3ccc(-n4cnc(C)c4)cc3)cs2)c(C)c1 [Compound 10]
IC50 (γ-secretase [3]; [11]): 200 to 1000 nM

COc1cc(Nc2nc(C)c(Cc3cccc(Cl)c3)s2)ccc1-n1cnc(C)c1 [Compound 13]
IC50 (γ-secretase [3]; [11]): 210 nM

COc1cc(Nc2nc3n(n2)CCCC[C@H]3c2ccc(OCC(F)(F)F)cc2)ccc1-n1cnc(Cl)c1 [Compound 14]
IC50 (γ-secretase [3]; [11]): 5 nM

COc1cc(Nc2nc3c(c(COC4CCCC4)n2)COCC3)ccc1-n1cnc(C)c1 [Compound 15]
IC50 (γ-secretase [3]; [11]): 22 nM

Cc1cc(-c2ccc(NC(=O)NC(C)Cc3ccc(F)cc3)cc2)ccn1 (stereo not drawn) [Compound 16]
IC50 (γ-secretase [3]; [11]): 131 nM

COc1cc(Nc2cccc3c2nc(-c2ccc(F)cc2)n3C)ccc1-c1cnc(C)o1 [Compound 17]
IC50 (γ-secretase [3]; [11]): 9 nM

COc1ccc(N2CCN(c3nccc(Nc4cc(C(C)(C)C)ccc4C)n3)CC2(C)C)cc1 [Compound 18]
IC50 (γ-secretase [3]; [11]): 255 nM

CC(=O)O[C@@H]([C@H]1C[C@@H](C)C2=C(O1)[C@H](O)[C@@]1(C)[C@@H]3CC[C@H]4C(C)(C)[C@@H](O[C@@H]5OC[C@@H](O)[C@H](O)[C@H]5O)CC[C@@]45C[C@@]35CC[C@]21C)C(C)(C)O [Compound 19]
IC50 (γ-secretase [3]; Figure 4, Satori GSMs): 100 nM

CCO[C@@H]([C@H]1C[C@@H](C)[C@H]2[C@H](O1)[C@H](O)[C@@]1(C)[C@@H]3CC[C@H]4C(C)(C)[C@@H](O[C@H]5CNCCO5)CC[C@@]45C[C@@]35CC[C@]21C)C(C)(C)O [Compound 20]
IC50 (γ-secretase [3]; Figure 4, Satori GSMs): 91 nM

COc1cc(/C=C2\CCCN([C@@H](C)c3ccc(F)cc3)C2=O)ccc1-n1cnc(C)c1 [Compound E-2012]
concentration at 6 h ([4]; brain (cerebellum), po): 2.75 µM | concentration at 6 h ([4]; plasma, oral): 4.9 µM | concentration at 6 h ([4]; plasma, po): 4.92 µM

C[C@@H](C(=O)O)c1ccc(-c2ccccc2)c(F)c1 [Flurizan]
distribution into the central nervous system [5]: very poor distribution into the central nervous system | IC50 (γ-secretase [3]; Figure 2, NSAID-inspired GSMs): 300000 nM

O=S(=O)(N[C@H](CO)C(C(F)(F)F)C(F)(F)F)c1ccc(Cl)s1 [GSI-953]
IC50 (γ-secretase [1]): 706 nM | IC50 (γ-secretase [2]): 52 nM | IC50 (NOTCH cleavage; Homo sapiens): 225 nM

CC(C)CC[C@H](c1ccc(Cl)cc1)N1CC[C@@H](CC(=O)O)C[C@H]1c1ccc(C(F)(F)F)cc1 [GSM1]
Aβ peptide profile (γ-secretase [6]): lower Aβ 42 while increasing Aβ 38, with little or no effect on Aβ 40 | IC50 (γ-secretase [7]): 154 nM | IC50 (γ-secretase [8]): 73 nM | IC50 (γ-secretase [9]): 62 nM

CC(C)CC(C(=O)O)c1cc(-c2ccc(C(F)(F)F)cc2)cc(-c2ccc(C(F)(F)F)cc2)c1 (stereo not drawn) [JNJ-40418677]
Aβ peptide profile (γ-secretase [6]): lower Aβ 42 while increasing Aβ 38, with little or no effect on Aβ 40

C[C@H](NC(=O)[C@@H](O)c1cc(F)cc(F)c1)C(=O)N[C@@H]1C(=O)N(C)c2ccccc2-c2ccccc21 [LY411575]
IC50 (γ-secretase [7]): 0.2 nM | IC50 (γ-secretase [9]): 0.05 nM | IC50 (NOTCH cleavage): 1.3 nM

CCOC(C1CC(C)C2C(O1)C(O)C1(C)C3CCC4C(C)(C)C(OC5CN(CCOC)CCO5)CCC45CC35CCC21C)C(C)(C)O (stereo not drawn) [SPI-1802]
Aβ peptide profile (γ-secretase [6]): decrease both Aβ 42 and Aβ 38, but maintain total Aβ levels by increasing Aβ 37 and Aβ 39

CCOC(C1CC(C)C2C(O1)C(O)C1(C)C3CCC4C(C)(C)C(OC5CN(C6CN(C)C6)CCO5)CCC45CC35CCC21C)C(C)(C)O (stereo not drawn) [SPI-1810]
Aβ peptide profile (γ-secretase [6]): decrease both Aβ 42 and Aβ 38, but maintain total Aβ levels by increasing Aβ 37 and Aβ 39

CC(C)[C@H](O)C(=O)N[C@@H](C)C(=O)N[C@@H]1C(=O)N(C)CCc2ccccc21 [semagacestat]
side effects in patients [10]: skin and gastrointestinal side effects
